Several values for one entry are separate records, joined by “and”; a condition that tells them apart may be missing. Equal values may be shown once. Read-outs that look alike come from different tables or passages of the source.
How the values were obtained:
[1] = molecular target: FXIIa (human) (Homo sapiens, UniProt P00748); settings: FXIIa 0.0045 U/ml, MeSO2-D-HHT-Gly-Arg-pNA 1.02 mmol/l, pH 7.4
Source text: FXIIa Test Mixture (Concentration in the Test)
(§1) 42 mmol/l Tris-HCl, pH 7.4
(§2) 1.02 mmol/l MeSO2 -D-HHT-Gly-Arg-pNA
0.0045 U/ml FXIIa (human)
(§3) 0-50% ethanol or ethylene glycol

[2] = molecular target: FXIa (human) (Homo sapiens, UniProt P03951); settings: FXIa 0.0012 μmol/l, MeSO2-D-HHT-Gly-Arg-pNA 1.02 mmol/l, pH 7.4
Sequence of FXIa (human) (P03951 388-625 limits assumed): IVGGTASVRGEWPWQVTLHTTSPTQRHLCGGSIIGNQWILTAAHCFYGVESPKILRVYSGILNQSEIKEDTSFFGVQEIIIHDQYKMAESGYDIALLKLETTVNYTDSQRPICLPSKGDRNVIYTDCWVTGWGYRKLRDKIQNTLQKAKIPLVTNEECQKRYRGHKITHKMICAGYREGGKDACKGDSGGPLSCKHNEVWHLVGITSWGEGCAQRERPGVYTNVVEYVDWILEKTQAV
Sequence of FXIa (human) (P03951 19-387 partner limits assumed): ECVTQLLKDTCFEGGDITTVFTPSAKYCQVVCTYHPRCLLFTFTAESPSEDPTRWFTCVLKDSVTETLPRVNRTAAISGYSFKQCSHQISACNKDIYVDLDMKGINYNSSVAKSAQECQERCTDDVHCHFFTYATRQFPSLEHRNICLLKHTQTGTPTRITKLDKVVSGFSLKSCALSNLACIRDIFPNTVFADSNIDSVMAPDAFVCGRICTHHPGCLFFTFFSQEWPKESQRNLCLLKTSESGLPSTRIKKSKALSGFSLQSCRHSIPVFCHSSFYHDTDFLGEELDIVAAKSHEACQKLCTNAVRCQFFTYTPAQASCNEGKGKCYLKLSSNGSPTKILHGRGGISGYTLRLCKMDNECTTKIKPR
Source text: FXIa Test Mixture (Concentration in the Test)
as §1, §2
0.0012 μmol/l FXIa (human)
as §3

[3] = molecular target: T1, rFIXa (human) (Homo sapiens, UniProt P00740); experiment: Influence of alcohols and organic solvents on the activity of rFIXa, chromogenic peptide substrates; format: biochemical; parameters: coding for the FIX protease domain from amino acid position 181 to 415; Met (ATG start codon) (N); made in house; settings: for V/V0: pH 7.4
Method: The reaction was started by adding FIXa.
MeSO2 -D-HHT-Gly-Arg-pNA→MeSO2 -D-HHT-Gly-Arg+pNA measurement signal: pNA
0.48 μmol/l rFIXa (human)
0-50% (alcohol or organic solvent)
The ratio V/V0 was calculated to illustrate the stimulation of the catalytic activity of rFIXa.
V0, reaction rate without additives
V, reaction rate in the presence of additives
Test Mixture Chromogenic (Concentration in the Test)
Target sequence in this assay (P00740 227-461 limits assumed): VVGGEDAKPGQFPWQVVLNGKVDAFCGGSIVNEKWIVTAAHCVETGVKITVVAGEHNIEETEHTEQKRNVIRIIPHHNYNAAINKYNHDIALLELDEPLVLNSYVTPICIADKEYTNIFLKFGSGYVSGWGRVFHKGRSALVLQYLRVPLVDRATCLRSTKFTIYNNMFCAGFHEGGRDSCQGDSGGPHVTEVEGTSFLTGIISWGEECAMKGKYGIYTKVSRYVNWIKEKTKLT
Target sequence in this assay (P00740 131-226 partner limits assumed): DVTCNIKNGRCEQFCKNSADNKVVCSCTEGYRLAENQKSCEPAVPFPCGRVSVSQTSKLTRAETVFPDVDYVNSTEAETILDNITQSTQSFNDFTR

[4] = molecular target: FXa (bovine) (Bos taurus, UniProt P00743); settings: FXa 0.088 μmol/l, MeSO2-D-HHT-Gly-Arg-pNA 1.02 mmol/l, pH 7.4
Sequence of FXa (bovine) (P00743 234-492 limits assumed): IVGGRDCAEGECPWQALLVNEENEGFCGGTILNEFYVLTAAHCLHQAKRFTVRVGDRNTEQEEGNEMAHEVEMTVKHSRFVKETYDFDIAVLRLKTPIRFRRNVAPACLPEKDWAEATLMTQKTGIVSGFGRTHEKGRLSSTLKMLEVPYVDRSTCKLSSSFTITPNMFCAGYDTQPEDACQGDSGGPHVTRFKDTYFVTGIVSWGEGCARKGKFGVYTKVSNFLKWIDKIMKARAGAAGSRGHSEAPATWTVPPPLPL
Sequence of FXa (bovine) (P00743 41-180 partner limits assumed): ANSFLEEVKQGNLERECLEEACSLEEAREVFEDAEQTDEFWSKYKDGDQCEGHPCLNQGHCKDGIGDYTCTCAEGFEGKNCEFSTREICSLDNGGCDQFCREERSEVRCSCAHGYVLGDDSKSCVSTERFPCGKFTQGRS
Source text: FXa Test Mixture (concentration in the Test)
as §1, §2
0.088 μmol/l FXa (bovine)
as §3

[5] = molecular target: plasma kallikrein (human) (Homo sapiens, UniProt P03952); settings: PKallikrein 0.0176 U/ml, MeSO2-D-HHT-Gly-Arg-pNA 1.02 mmol/l, pH 7.4
Sequence of plasma kallikrein (human) (P03952 391-638 limits assumed): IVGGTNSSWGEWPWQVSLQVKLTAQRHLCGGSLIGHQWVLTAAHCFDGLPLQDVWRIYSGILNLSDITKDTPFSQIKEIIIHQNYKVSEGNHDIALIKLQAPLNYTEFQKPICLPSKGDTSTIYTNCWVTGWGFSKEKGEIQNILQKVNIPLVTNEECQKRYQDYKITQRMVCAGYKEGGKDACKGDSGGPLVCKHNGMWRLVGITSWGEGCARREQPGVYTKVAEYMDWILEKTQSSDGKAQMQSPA
Sequence of plasma kallikrein (human) (P03952 20-390 partner limits assumed): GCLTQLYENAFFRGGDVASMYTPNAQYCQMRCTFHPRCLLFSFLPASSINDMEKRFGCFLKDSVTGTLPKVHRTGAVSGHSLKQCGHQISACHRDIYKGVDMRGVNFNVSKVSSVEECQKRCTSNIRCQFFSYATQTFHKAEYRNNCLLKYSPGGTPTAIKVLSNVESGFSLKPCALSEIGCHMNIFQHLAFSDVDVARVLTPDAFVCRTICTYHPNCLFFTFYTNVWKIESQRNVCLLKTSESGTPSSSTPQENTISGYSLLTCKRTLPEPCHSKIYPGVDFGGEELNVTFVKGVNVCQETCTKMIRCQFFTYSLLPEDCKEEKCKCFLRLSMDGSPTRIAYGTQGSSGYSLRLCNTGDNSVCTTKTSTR
Source text: Plasma Kallikrein Test Mixture (Concentration in the Test)
as §1, §2
0.0176 U/ml plasma kallikrein (human)
as §3

[6] = molecular target: native FIXa (human) (Homo sapiens, UniProt P00740); settings: pH 7.4; for V/V0: MeSO2-D-HHT-Gly-Arg-pNA 1.02 mmol/l, 0.14 μmol/l native FIXa
Sequence of native FIXa (human) (P00740 227-461 limits assumed): as the sequence (P00740 227-461 limits assumed) above
Sequence of native FIXa (human) (P00740 47-191 partner limits assumed): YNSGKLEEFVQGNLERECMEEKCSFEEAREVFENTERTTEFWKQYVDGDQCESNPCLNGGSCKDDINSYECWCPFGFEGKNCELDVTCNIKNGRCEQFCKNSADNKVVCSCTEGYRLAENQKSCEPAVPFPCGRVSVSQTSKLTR
Method: The FIXa test was carried out with recombinantly produced native human FIXa as a sample and the peptide substrate MeSO2 -D-HHT-Gly-Arg-pNA (Pefachrom tPA, Pentapharm Ltd., Basel, Switzerland) or other chromogenic/fluorogenic substrates of the R-D-Xxx-Gly-Arg-pNA type (EP-B 0 034 122) in Tris-HCl buffer and the substances to be tested (alcohol, solvents and inhibitors). The reaction was started by adding FIXa.
The test mixture was incubated at room temperature (25° C.) in a microtitre plate and the change in absorbance (ΔA/min) was measured at 405 nm using an ELISA reader. The activity and the kinetic constants were determined from the linear initial slope according to the Michaelis-Menten equation.
as §2
0.14 μmol/l native FIXa (human)
as §3
FIXa Test Mixture (Concentration in the Test)

[7] = molecular target: thrombin (bovine) (Bos taurus, UniProt P00735); settings: thrombin 0.045 μmol/l, MeSO2-D-HHT-Gly-Arg-pNA 1.02 mmol/l, pH 7.4
Source text: Thrombin Test Mixture (Concentration in the Test)
as §1, §2
0.045 μmol/l thrombin (bovine)
as §3

[8] = molecular target: T1, rFIXa (human); settings: fluorogenic MeSO2-D-CHA-Gly-Arg-AMC 0.51 mmol/l, 0.08 μmol/l rFIXa, pH 7.4
Source text: The stimulation of human rFIXa by ethanol and ethylene glycol was examined using the peptide substrates MeSO2 -D-HHT-Gly-Arg-pNA (Pefachrom tPA, Pentapharm Ltd., Basel, Switzerland), MOC-D-Nle-Gly-Arg-pNA (Chromozym X, Boehringer Mannheim GmbH, Mannheim, Germany, Cat.No. 789763), MeSO2 -D-CHG-Gly-Arg-pNA (Pentapharm Ltd., Basel, Switzerland), MeSO2 -D-CHA-Gly-Arg-pNA (Pentapharm Ltd., Basel, Switzerland) and MeSO2 -D-CHA-Gly-Arg-AMC (Pentapharm Ltd., Basel, Switzerland).
Test Mixture Fluorogenic (Concentration in the Test)
0.51 mmol/l MeSO2 -D-CHA-Gly-Arg-AMC
0.08 μmol/l rFIXa (human)
Target sequence in this assay (P00740 227-461): as the sequence (P00740 227-461 limits assumed) above
Target sequence in this assay (P00740 131-226): as the sequence (P00740 131-226 partner limits assumed) above

Sequence of FXIIa (human) (P00748 373-615 limits assumed, other chains not shown): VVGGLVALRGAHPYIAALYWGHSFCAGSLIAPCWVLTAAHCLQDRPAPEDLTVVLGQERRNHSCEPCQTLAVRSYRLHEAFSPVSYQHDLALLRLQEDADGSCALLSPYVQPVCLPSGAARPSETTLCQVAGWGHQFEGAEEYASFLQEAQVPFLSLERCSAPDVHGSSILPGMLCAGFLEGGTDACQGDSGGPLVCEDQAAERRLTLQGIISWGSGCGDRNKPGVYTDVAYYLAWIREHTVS

OCCO [Ethylene glycol]
V/V0 ([1]; 8% alcohol): 0.892
V/V0 ([1]; 16% alcohol): 0.729
V/V0 ([1]; 25% alcohol): 0.551
V/V0 ([1]; 33% alcohol): 0.355
V/V0 ([1]; 41% alcohol): 0.187
V/V0 ([1]; 50% alcohol): 0.103
V/V0 ([2]; 8% alcohol): 0.922
V/V0 ([2]; 16% alcohol): 0.790
V/V0 ([2]; 25% alcohol): 0.569
V/V0 ([2]; 33% alcohol): 0.422
V/V0 ([2]; 41% alcohol): 0.275
V/V0 ([2]; 50% alcohol): 0.165
V/V0 ([3]; 8% additive, MOC-D-Nle-Gly-Arg-pNA 0.82 mmol/l, 0.48 μmol/l rFIXa): 3.91
V/V0 ([3]; 8% additive, MeSO2-D-CHA-Gly-Arg-pNA 1.02 mmol/l, 0.48 μmol/l rFIXa): 2.84
V/V0 ([3]; 8% additive, MeSO2-D-CHG-Gly-Arg-pNA 1.02 mmol/l, […] rFIXa): 5.47
V/V0 ([3]; 8% additive, MeSO2-D-HHT-Gly-Arg-pNA 1.02 mmol/l, 0.48 μmol/l rFIXa): 2.91
V/V0 ([3]; 16% additive, MOC-D-Nle-Gly-Arg-pNA 0.82 mmol/l, 0.48 μmol/l rFIXa): 8.85
V/V0 ([3]; 16% additive, MeSO2-D-CHA-Gly-Arg-pNA 1.02 mmol/l, 0.48 μmol/l rFIXa): 6.26
V/V0 ([3]; 16% additive, MeSO2-D-CHG-Gly-Arg-pNA 1.02 mmol/l, […] rFIXa): 13.13
V/V0 ([3]; 16% additive, MeSO2-D-HHT-Gly-Arg-pNA 1.02 mmol/l, 0.48 μmol/l rFIXa): 6.05
V/V0 ([3]; 25% additive, MOC-D-Nle-Gly-Arg-pNA 0.82 mmol/l, 0.48 μmol/l rFIXa): 17.07
V/V0 ([3]; 25% additive, MeSO2-D-CHA-Gly-Arg-pNA 1.02 mmol/l, 0.48 μmol/l rFIXa): 9.34
V/V0 ([3]; 25% additive, MeSO2-D-CHG-Gly-Arg-pNA 1.02 mmol/l, […] rFIXa): 19.37
V/V0 ([3]; 25% additive, MeSO2-D-HHT-Gly-Arg-pNA 1.02 mmol/l, 0.48 μmol/l rFIXa): 10.27
V/V0 ([3]; 33% additive, MOC-D-Nle-Gly-Arg-pNA 0.82 mmol/l, 0.48 μmol/l rFIXa): 22.42
V/V0 ([3]; 33% additive, MeSO2-D-CHA-Gly-Arg-pNA 1.02 mmol/l, 0.48 μmol/l rFIXa): 11.18 and 11
V/V0 ([3]; 33% additive, MeSO2-D-CHG-Gly-Arg-pNA 1.02 mmol/l, […] rFIXa): 23.20
V/V0 ([3]; 33% additive, MeSO2-D-HHT-Gly-Arg-pNA 1.02 mmol/l, 0.48 μmol/l rFIXa): 12.68
V/V0 ([3]; 41% additive, MOC-D-Nle-Gly-Arg-pNA 0.82 mmol/l, 0.48 μmol/l rFIXa): 17.80
V/V0 ([3]; 41% additive, MeSO2-D-CHA-Gly-Arg-pNA 1.02 mmol/l, 0.48 μmol/l rFIXa): 7.54
V/V0 ([3]; 41% additive, MeSO2-D-CHG-Gly-Arg-pNA 1.02 mmol/l, […] rFIXa): 17.40
V/V0 ([3]; 41% additive, MeSO2-D-HHT-Gly-Arg-pNA 1.02 mmol/l, 0.48 μmol/l rFIXa): 9.68
V/V0 ([3]; 50% additive, MOC-D-Nle-Gly-Arg-pNA 0.82 mmol/l, 0.48 μmol/l rFIXa): 6.96
V/V0 ([3]; 50% additive, MeSO2-D-CHA-Gly-Arg-pNA 1.02 mmol/l, 0.48 μmol/l rFIXa): 2.56
V/V0 ([3]; 50% additive, MeSO2-D-CHG-Gly-Arg-pNA 1.02 mmol/l, […] rFIXa): 5.67
V/V0 ([3]; 50% additive, MeSO2-D-HHT-Gly-Arg-pNA 1.02 mmol/l, 0.48 μmol/l rFIXa): 3.41
quotient V/V0 relative to that with substrate MeSO2-D-HHT-Gly-Arg-pNA ([3]; above 25% ethylene glycol, substrates MOC-D-Nle-Gly-Arg-pNA and MeSO2-D-CHG-Gly-Arg-pNA): 1.5-2 fold
stimulation of the activity of rFIXa ([3]; concentration range of 15-40%): 5-15 fold
V/V0 ([4]; 8% alcohol): 0.973
V/V0 ([4]; 16% alcohol): 0.902
V/V0 ([4]; 25% alcohol): 0.741
V/V0 ([4]; 33% alcohol): 0.558
V/V0 ([4]; 41% alcohol): 0.347
V/V0 ([4]; 50% alcohol): 0.191
V/V0 ([5]; 8% alcohol): 1.05
V/V0 ([5]; 16% alcohol): 0.763
V/V0 ([5]; 25% alcohol): 0.676
V/V0 ([5]; 33% alcohol): 0.536
V/V0 ([5]; 41% alcohol): 0.478
V/V0 ([5]; 50% alcohol): 0.290
activation among plasma kallikrein, FXIIa, FXIa, FIXa, FXa and thrombin (in words) ([6]; 0-50% alcohol, MeSO2-D-HHT-Gly-Arg-pNA): only FIXa is activated
V/V0 ([6]; 8% additive): 3.13
V/V0 ([6]; 16% additive): 6.19
V/V0 ([6]; 25% additive): 9.36
V/V0 ([6]; 33% additive): 12.21
V/V0 ([6]; 41% additive): 8.29
V/V0 ([6]; 50% additive): 3.92
V/V0 ([7]; 8% alcohol): 0.924
V/V0 ([7]; 16% alcohol): 0.862
V/V0 ([7]; 25% alcohol): 0.763
V/V0 ([7]; 33% alcohol): 0.653
V/V0 ([7]; 41% alcohol): 0.508
V/V0 ([7]; 50% alcohol): 0.395
V/V0 ([8]; 8% additive): 2.55
V/V0 ([8]; 16% additive): 5.59
V/V0 ([8]; 25% additive): 8.40
V/V0 ([8]; 33% additive): 8.90 and 9
V/V0 ([8]; 41% additive): 5.79
V/V0 ([8]; 50% additive): 1.44
